According to PMC10652874, “Investigation into the mechanism of action of the antimicrobial peptide epilancin 15X” (Frontiers in Microbiology, 2023):

Tested on: S. carnosus TM300
Experiment: RNAseq differential gene expression
Type: cell-based, Staphylococcus carnosus
Experimental: For the RNAseq experiments, epilancin was added at sub-lethal concentration (0.5x MIC) to S. carnosus TM300 once the cultures reached an OD600 of 0.6. RNA was extracted 40 min after the treatment, using a FastRNA Pro Blue kit (MP Biomedicals). Both treated and parallel untreated samples were collected at the same time. Sequencing was performed at the Carver Biotechnology Center (UIUC). For RNAseq analysis, gene counts were read in to R (v3.1.1; [Team, 2014]), and 14/2441 genes were removed because they had fewer than 32 total counts across the six samples. edgeR’s (v3.6.7) TMM normalization ([Robinson and Oshlack, 2010]) plus negative binomial generalized log-linear model ([McCarthy et al., 2012]) was used to test for differential expression between treated and untreated groups, while accounting for pairing of U and T replicates from three different cultures. p-values were adjusted using the false discovery rate method ([Benjamini and Hochberg, 1995]).

[1] = putative ABC transporter ATP-binding protein
[2] = putative short chain dehydrogenase
[3] = putative transcriptional regulator

## Epilancin 15X
molybdopterin-guanine dinucleotide biosynthesis protein MobA
  fold_change mobA: 2.6
mutT/nudix family protein
  fold_change mutT: 5.15
Phage integrase
  fold_change int: 3.38
Phosphate transporter ATP-binding protein
  fold_change pstB: 3.4
phosphopentomutase, gene drm
  fold_change deoB: 2.75
Poly D-alanine transfer protein
  fold_change dltD: 2.08
proline/betaine transporter
  fold_change proP: 2.73
Putative 2-keto-4-pentenoate hydratase
  fold_change Sca_0040: 2.87
Putative 3-methyladenine DNA glycosylase
  fold_change Sca_1843: 2.27
[1]
  fold_change Sca_0458: 3.16
  fold_change Sca_2242: 2.55
Putative ABC transporter permease
  fold_change Sca_1033: 3.26
Putative ABC-type cobalt transport system ATPase
  fold_change Sca_0699: 2.62
Putative ATP-dependent Clp proteinase chain clpL
  fold_change clpL: 7.83
Putative ATP-dependent helicase
  fold_change Sca_0398: 3.32
Putative ComK family protein
  fold_change Sca_0642: 2.73
Putative CorA-like Mg2+ transporter protein
  fold_change Sca_2395: 2.01
Putative DNA repair protein RadC, gene radC
  fold_change Sca_1264: 12.09
Putative FeS assembly protein SufB
  fold_change sufB: 3.43
Putative HNH family endonuclease, phage associated
  fold_change Sca_0476: 4.35
Putative IstB-like ATP-binding protein, phage associated
  fold_change Sca_0479: 3.51
Putative L-serine dehydratase subunit beta
  fold_change sdaB: 3.71
Putative L-serine dehydratase, iron-sulfur-dependent subunit alpha
  fold_change sdaA: 2.95
Putative MerR family transcriptional regulator
  fold_change Sca_0539: 2.12
Putative N-acetyltransferase
  fold_change Sca_0093: 2.6
Putative NAD(P)H-flavin oxidoreductase
  fold_change Sca_1976: 5.31
Putative NADH-flavin reductase
  fold_change Sca_0831: 4.42
Putative NADP-dependent oxidoreductase
  fold_change Sca_1692: 5.86
Putative NADPH oxidoreductase
  fold_change Sca_1977: 5.07
Putative Na(+)/H(+) antiporter subunit G
  fold_change Sca_2123: 2.16
Putative PTS system, IIBC components
  fold_change Sca_2138: 2.3
Putative RpiR family transcriptional regulator
  fold_change Sca_2137: 2.96
Putative Tat-translocated protein
  fold_change Sca_2214: 3.14
Putative acetoacetate decarboxylase
  fold_change adc: 2.51
Putative acid-CoA ligase
  fold_change fadE: 2.21
Putative alcohol dehydrogenase
  fold_change adhC: 2.53
Putative alcohol dehydrogenase, zinc-containing
  fold_change Sca_2013: 3.05
Putative aldehyde dehydrogenase
  fold_change aldH: 0.49
Putative aldehyde dehydrogenase family protein
  fold_change Sca_1625: 2.65
Putative alkaline shock protein
  fold_change Sca_1685: 4.53
Putative alpha-acetolactate decarboxylase
  fold_change Sca_1958: 4.48
Putative alpha/beta fold family hydrolase
  fold_change Sca_0638: 2.8
Putative alpha/beta hydrolase superfamily protein
  fold_change Sca_0872: 3.04
Putative amidohydrolase
  fold_change Sca_0567: 2.54
Putative amidophosphoribosyltransferase
  fold_change Sca_0399: 3.6
Putative amino acid transporter
  fold_change Sca_2120: 0.49
Putative antibiotic transport-associated protein
  fold_change Sca_2151: 2.04
Putative antirepressor, phage associated
  fold_change Sca_0467: 4.9
Putative branched-chain amino acid carrier
  fold_change brnQ: 0.5
Putative catalase
  fold_change katE/B: 5.7
Putative cation exporting ATPase
  fold_change Sca_0538: 5
Putative cation-efflux system membrane protein
  fold_change czrB: 9.3
Putative cell wall-anchored protein
  fold_change Sca_0867: 2.34
Putative cobalt transport system permease
  fold_change Sca_0698: 2.09
Putative copper-transporting P-type ATPase
  fold_change copA: 2.32
Putative cytochrome D ubiquinol oxidase subunit I
  fold_change Sca_0707: 2.66
Putative cytochrome D ubiquinol oxidase subunit II
  fold_change Sca_0708: 3.72
Putative dUTP pyrophosphatase, phage associated
  fold_change dut: 3.34
Putative dioxygenase
  fold_change Sca_2298: 4.81
Putative effector domain of transcriptional regulator
  fold_change Sca_0871: 3.63
Putative esterase of the alpha-beta hydrolase superfamily
  fold_change Sca_0099: 2.92
Putative formamidase
  fold_change fmdA: 5.66
Putative general stress protein
  fold_change Sca_1468: 2.39
Putative glycerate kinase
  fold_change Sca_0390: 2.11
Putative glycerophosphoryl diester phosphodiesterase
  fold_change Sca_1327: 2.21
Putative glycine betaine/carnitine/choline transport system permease
  fold_change opuCB: 2.02
Putative glycosyl transferase
  fold_change Sca_0056: 2.07
Putative glyoxylase family protein
  fold_change Sca_1969: 4.21
Putative heat-inducible transcriptional repressor
  fold_change hrcA: 3.08
Putative holin-like protein LrgA
  fold_change lrgA: 3.61
Putative holliday junction resolvase, phage associated
  fold_change Sca_0480: 3.23
Putative indole-3-pyruvate decarboxylase
  fold_change Sca_2166: 2.06
Putative intracellular protease/amidase
  fold_change Sca_0081: 5.75
Putative mannose-6-phosphate isomerase
  fold_change Sca_1648: 0.5
Putative membrane-bound sulfatase
  fold_change Sca_0366: 2.62
Putative methylated DNA-protein cysteine methyltransferase
  fold_change adaB: 2.26
Putative monovalent cation/H+ antiporter subunit A
  fold_change Sca_2129: 3.98
Putative monovalent cation/H+ antiporter subunit B
  fold_change Sca_2128: 2.49
Putative monovalent cation/H+ antiporter subunit C
  fold_change Sca_2127: 2.24
Putative monovalent cation/H+ antiporter subunit D
  fold_change Sca_2126: 2.35
Putative monovalent cation/H+ antiporter subunit E
  fold_change Sca_2125: 2.21
Putative monovalent cation/H+ antiporter subunit F
  fold_change Sca_2124: 2.43
Putative nitroreductase
  fold_change Sca_0449: 2.26
Putative oxidoreductase protein
  fold_change mocA: 5.88
Putative peptidase
  fold_change Sca_0684: 2.13
Putative peptidase (peptidase family M20/M25/M40)
  fold_change Sca_1042: 0.49
Putative phage integrase family protein
  fold_change Sca_2130: 8.35
Putative phosphate ABC transporter permease
  fold_change pstA: 3.6
Putative phosphate transport system substrate-binding protein
  fold_change Sca_1034: 3.27
Putative phosphate uptake regulator protein
  fold_change Sca_1030: 3.27
Putative phospholipase/carboxylesterase
  fold_change Sca_0075: 3.41
Putative purine regulatory protein
  fold_change Sca_0147: 2.18
Putative pyrimidine nucleoside phosphorylase
  fold_change pdp: 2.55
Putative repressor protein
  fold_change czrA: 8.56
Putative response regulator
  fold_change vraR: 8.62
Putative ribosome-associated protein
  fold_change Sca_0400: 2.26
Putative selenocysteine lyase
  fold_change csdB: 3.29
[2]
  fold_change Sca_1824: 2.61
  fold_change Sca_2218: 3.36
  fold_change Sca_2233: 2.35
Putative site-specific recombinase XerD
  fold_change xerD: 2.53
Putative sugar phosphate isomerase
  fold_change Sca_0225: 3.01
Putative thioredoxine reductase
  fold_change trxB: 2.17
Putative transcription activator of glutamate synthase operon
  fold_change gltC: 2.32
Putative transcription regulator MarR family
  fold_change Sca_1970: 3.81
Putative transcriptional activator TenA
  fold_change Sca_2227: 2.88
[3]
  fold_change Sca_0070: 5.38
  fold_change Sca_2381: 3.42
Putative transmembrane protein
  fold_change Sca_1791: 8.45
Putative transport protein
  fold_change Sca_1822: 0.49
Putative two-component response regulator
  fold_change Sca_1423: 0.49
Quinolone resistance protein NorA
  fold_change norA: 2.56
Regulatory protein SpoVG
  fold_change spoVG: 2.18
Ribonuclease P
  fold_change rnpA: 2.02
Ribosomal protein L11 methyltransferase, gene SCA_1200
  fold_change prmA: 2.07
Secretory antigen SsaA
  fold_change Sca_0809: 2.03
sodium:alanine symporter family protein
  fold_change Sca_0615: 3.14
succinate-semialdehyde dehydrogenase (NADP+), gene gabD
  fold_change Sca_2363: 2.52
tRNA (uracil-5-)-methyltransferase Gid, gene gid
  fold_change trmFO: 2.02
Thymidine kinase
  fold_change tdk: 0.49
Transcription regulator Fur family
  fold_change perR: 2.27
Transcription repressor of class III stress genes
  fold_change ctsR: 5.22
Transport system binding protein
  fold_change Sca_0964: 3.98
type-1 signal peptidase 1B
  fold_change sipB: 2.45
type-I signal peptidase
  fold_change sipA: 2.68
